Here are results for ten molecules from article PMC3472742, “Bio-Guided Isolation of the Cytotoxic Terpenoids from the Roots of Euphorbia kansui against Human Normal Cell Lines L-O2 and GES-1” (International Journal of Molecular Sciences, 2012).

Like-named read-outs stand apart in the source and are kept apart here.

Series [1] has as its system human normal liver cells L-O2. Put plainly: MTT cell proliferation (cytotoxicity) assay on human normal liver cells L-O2. It counts as cell-based. The conditions noted are these: for IC50: 48 h, pure compounds, MTT, n = 6, read-out: IC50 L-O2 (proliferation inhibition). How it is done: (§1) Human normal liver cell L-O2 was kindly donated by the School of Life Science, Nanjing Normal University (Nanjing, China), and Human normal gastric epithelial cell GES-1 was kindly donated by the Department of Gastroenterology, Nanjing Drum Tower Hospital (Nanjing, China). Human normal liver cell LO-2 was routinely cultured in DMEM medium, supplemented with 10% (v/v) fetal bovine serum (FBS), 100 U/mL of penicillin and 100 μg/mL of streptomycin in a humidified atmosphere with 5% CO2 at 37 °C in an incubator. The culture medium was changed every day. Cultures were dissociated with 0.25% trypsase in phosphate buffered (pH 7.2~7.4) saline (PBS). Human normal gastric epithelial cell GES-1 was routinely cultured in DMEM medium, supplemented with 15% (v/v) calf serum (CS), 100 U/mL of penicillin and 100 μg/mL of streptomycin in a humidified atmosphere with 5% CO2 at 37 °C in an incubator. The culture medium was changed every two days. Cultures were dissociated with 0.25% trypsase and 0.05% EDTA in PBS (pH 7.2~7.4).
(§2) Cytotoxicity activity was assayed by MTT method as described. Briefly, cells were seeded in 96-well plates (Costar, Corning Co., Ltd., Beijing, China) with 100 μL at a concentration of cell suspension of 1.0 × 10_4 cells/mL (L-O2 cell) and 1.0 × 10_5 cells/mL (GES-1 cell), and incubated for 24 h at 37 °C in a humidified atmosphere of 5% CO2 in an incubator.
(§3) Every sample was solubilized in dimethyl sulfoxide (DMSO) to a concentration of 10 mg/mL and stored at 4 °C, then diluted with complete medium to the desired series concentration before treating the cells. Each solution was added into 96-well plates with 100 μL per well, repeated 6 well. Cells of the control groups were treated with the same volume of medium. The treated cells with different groups were incubated for 48 h at 37 °C in a humidified atmosphere of 5% CO2 in an incubator. Then, the treated cells were added with 20 μL/well of MTT (5.0 mg/mL), and incubated for a further 4 h in an incubator. The growth medium was removed from all the wells, and 150 μL DMSO were added to each well. The plates were shaken gently for 10 min to blend the mixture. The absorbance value of each well was read at 490 nm using a microplate reader. All experiments were performed at least three times. The inhibition rate of cell proliferation was calculated according to the formula:
(§4) (1) cell inhibition (%)=1-sample solution absorbance value/control absorbance value)×100%
(§5) The results were expressed as an inhibition ratio and IC50 (concentration that inhibits 50% of cell growth). The data were analyzed with software SPSS 15.0 (SPSS Inc.: Chicago, IL, USA). The anti-proliferation activity is more significant when the IC50 is smaller.

For series [2], the system named is human normal gastric epithelial cell GES-1. Put plainly: MTT cell proliferation (cytotoxicity) assay on human normal gastric epithelial cells GES-1. It counts as cell-based. The conditions noted are these: for IC50: pure compounds, MTT, 48 h, n = 6, read-out: IC50 GES-1 (proliferation inhibition); for inhibition activity on GES-1 cell lines growth vs control, dose-dependent: Figure 2. How it is done: as §1, §2, §3, §4, §5

Where [3] appears, read: concentration range 0.78–12.5 μg/mL, Figure 3.
Setting [4] is: concentration range 0.78–12.5 μg/mL.
Setting [5] is: concentration range 0.39–6.25 μg/mL.

For the molecule `CCCCCC=CC=CC(=O)OC1C(C)=CC23C(=O)C(C=C(C)C(O)C12O)C1C(CC3C)C1(C)C` (stereo not drawn) [Compound 7, 3-O-(2′E,4′Z-Decadienoyl)-20-deoxyingenol], the IC50 in series [1] (Homo sapiens) stood at 13.1 µM; in series [2] (Homo sapiens, GES1, 48 h) it was 3.53 µM. For the same molecule, in series [1] (setting [3]), the “inhibition activity on L-O2 cell lines growth vs control, dose-dependent” value is “significant inhibition activity”. Further, the “inhibition activity on GES-1 cell lines growth vs control, dose-dependent” value in series [2] (setting [4]) is on record as “significant inhibition activity”.

Take `CC1=CC23C(=O)C(C=C(C)C(OC(=O)c4ccccc4)C2(O)C1O)C1C(CC3C)C1(C)C` (stereo not drawn) [Compound 9, 5-O-Benzoyl-20-deoxyingenol]: the IC50 in series [1] (Homo sapiens) turned out to be 34.5 µM; in series [2] (Homo sapiens, GES1, 48 h) it was 22 µM. Besides, in series [1] (concentration range 1.56–25 μg/mL, Figure 3), the “inhibition activity on L-O2 cell lines growth vs control, dose-dependent” value is listed as “significant inhibition activity”. Further, the “inhibition activity on GES-1 cell lines growth vs control, dose-dependent” value in series [2] (concentration range 1.56–25 μg/mL) is on record as “significant inhibition activity”.

`C=C1C(OC(=O)c2ccccc2)C(O)C(=O)C(C)(C)C2OC2C(C)C(=O)C2(O)C(C1OC(=O)c1ccccc1)C(OC(C)=O)C(C)(O)C2OC(C)=O` (stereo not drawn) [Compound 2, kansuinine B]: the IC50 in series [1] (Homo sapiens) is over 100 µM; in series [2] (Homo sapiens, GES1, 48 h), over 100 µM.

For `CCCCCC=CC=CC(=O)OC1C(C)=CC23C(=O)C(C=C(COC(C)=O)C(O)C12O)C1C(CC3C)C1(C)C` (stereo not drawn) [Compound 5, 3-O-(2′E,4′Z-Decadienoyl)-20-O-acetylingenol], the IC50 was 12.4 µM in series [1] (Homo sapiens) and 8.51 µM in series [2] (Homo sapiens, GES1, 48 h). Moreover, the “inhibition activity on L-O2 cell lines growth vs control, dose-dependent” value in series [1] (setting [3]) is listed as “significant inhibition activity”. The “inhibition activity on GES-1 cell lines growth vs control, dose-dependent” value in series [2] (setting [4]) was “significant inhibition activity”.

On to `CCCCCC=CC=CC(=O)OC1C(C)=CC23C(=O)C(C=C(COC(C)=O)C(O)C12O)C1C(CC3C)C1(C)C` (stereo not drawn) [Compound 6, 3-O-(2′E,4′E-Decadienoyl)-20-O-acetylingenol], for which the “inhibition activity on L-O2 cell lines growth vs control, dose-dependent” value in series [1] (setting [3]) is on record as “significant inhibition activity”. Besides, the figures for the IC50 in series [1] and in series [2] were 8.22 µM and 6.67 µM, respectively. Moreover, in series [2] (setting [5]), the “inhibition activity on GES-1 cell lines growth vs control, dose-dependent” value is “significant inhibition activity”.

Regarding `CC(=O)OC1C(C)=CC23C(=O)C(C=C(C)C(OC(=O)c4ccccc4)C12O)C1C(CC3C)C1(C)C` (stereo not drawn) [Compound 4, kansuiphorin C], the IC50 was over 100 µM in series [1] (Homo sapiens) and over 100 µM in series [2] (Homo sapiens, GES1, 48 h).

As usually defined, the melting point is the temperature, or range, at which the solid turns liquid. In the case of `CC(C)=CCC[C@H](C)[C@@H]1CC[C@]2(C)C3=C(CC[C@@]12C)[C@@]1(C)CC[C@H](O)C(C)(C)C1CC3=O` (stereo partly drawn) [Compound 11, epi-kansenone], the melting point was in the range of 116 to 118 °C. In addition, the IC50 in series [1] (Homo sapiens) was determined as 17.8 µM. The “inhibition activity on L-O2 cell lines growth vs control, dose-dependent” value in series [1] (setting [3]) is listed as “significant inhibition activity”. In series [2] (Homo sapiens, GES1, 48 h), the IC50 was determined as 8.04 µM. Also, the “inhibition activity on GES-1 cell lines growth vs control, dose-dependent” value in series [2] (setting [5]) is “significant inhibition activity”.

Take `CC1=CC2C(=O)C3(C=C(C)C(OC(=O)c4ccccc4)C3(O)C1O)C(C)CC1C2C1(C)C` (stereo not drawn) [Compound 8, 3-O-Benzoyl-20-deoxyingenol]: the IC50 in series [1] (Homo sapiens) came to 70.8 µM; in series [2] (Homo sapiens, GES1, 48 h), 23.5 µM. In series [1] (concentration range 3.125–50 μg/mL, Figure 3), the “inhibition activity on L-O2 cell lines growth vs control” value is reported as “significant inhibition activity”. Further, in series [2] (setting [4]), the “inhibition activity on GES-1 cell lines growth vs control, dose-dependent” value was “significant inhibition activity”.

`C=C1[C@H](OC(C)=O)[C@@H](OC(=O)c2ccccc2)[C@@H](OC(C)=O)C(C)(C)[C@H]2O[C@](O)([C@H](C)C2=O)[C@@]2(OC(C)=O)C[C@H](C)[C@H](OC(C)=O)[C@@H]2[C@H]1OC(C)=O` [Compound 1, kansuinine A]: the IC50 in series [1] (Homo sapiens) is over 100 µM; in series [2] (Homo sapiens, GES1, 48 h), over 100 µM.

Turning to `CC(C)=CCC[C@@H](C)[C@@H]1CC[C@]2(C)C3=C(CC[C@@]12C)[C@@]1(C)CC[C@H](O)C(C)(C)[C@@H]1CC3` [Compound 12, euphol], the IC50 in series [1] (Homo sapiens) is over 100 µM; in series [2] (Homo sapiens, GES1, 48 h), over 100 µM.
